Here are results for five molecules from patent US7807841B2, “Spiro-containing compounds and compositions as modulators of steroid hormone nuclear receptors” (IRM LLC, priority 2005, dated 2010).

SMILES strings stand for the structures.

The target in the experiment is T1, Mineralocorticoid Receptor (MR) (Homo sapiens, UniProt P08235).
T1 construct: expressed in transfected cells; host or cells: 293T cells (ATCC)
T1 sequence (P08235 672-984): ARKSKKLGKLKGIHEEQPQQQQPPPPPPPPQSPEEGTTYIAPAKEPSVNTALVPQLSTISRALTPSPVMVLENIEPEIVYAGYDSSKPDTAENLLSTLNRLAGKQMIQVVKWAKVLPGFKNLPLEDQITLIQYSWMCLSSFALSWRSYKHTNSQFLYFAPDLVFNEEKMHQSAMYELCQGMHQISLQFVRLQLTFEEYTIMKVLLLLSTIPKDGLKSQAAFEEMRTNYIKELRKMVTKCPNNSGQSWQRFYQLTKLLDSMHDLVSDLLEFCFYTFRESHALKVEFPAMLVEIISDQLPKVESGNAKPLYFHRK
As to the kind of experiment: Functional assay of mineralocorticoid receptor antagonism (Gal4-MR mammalian two hybrid luciferase reporter, 293T cells). The experiment is classed as cell-based. The conditions noted are these: antagonism of aldosterone (0.4 nM)-induced MR activity. The protocol:
The MR antagonist activity of the compounds is determined in a mammalian two hybrid reporter system. The N-terminus of MR (MR-NT, sequence coding amino acid 1-597) is fused to the activation domain of the VP16 gene. The ligand binding domain of MR (MR-LBD, sequence encoding amino acid 672-984) is fused to the DNA binding domain of the yeast Gal4 gene. The MR gene is cloned from a human kidney cDNA library with PCR.
The assay is performed in 384 well plates. Briefly, 293T cells (ATCC) are transfected with expression vectors for Gal-4-MR-LBD and VP16-MR NT, and a luciferase reporter vector containing Gal4 binding sequence (pG5-Luc). Cells are plated in 384 well plates immediately after transfection (approximately 3×10^4 cells/well in 50 μl medium). The medium is supplemented with 3% charcoal-dextran treated fetal bovine serum (Hyclone). Twenty four hours after transfection, compounds prepared in DMSO are transferred to the cells. The cells are then stimulated with 0.4 nM final concentration of aldosterone (Acros) and incubated at 37° C. for another 24 hours before the luciferase activity is assayed with 20 μl of Bright-Glo (Promega) using a luminometer (CLIPR). The expression of luciferase is used as an indicator of aldosterone-induced MR trans-activation. Each compound is tested in duplicates with 12-concentration titration. IC50 values (defined as the concentration of test compound required to antagonize 50% of aldosterone-induced MR activity) are determined from the dose-response curve.
On to `O=C1CCC2(c3ccc(Br)cc3)OC3(CN12)c1ccccc1C=Cc1ccccc13` (centres unmarked) [FRS-7], for which the IC50 is < 100 nM. To `O=C1CCC2(c3ccn(S(=O)(=O)c4ccccc4)c3)OC3(CN12)c1ccccc1C=Cc1ccccc13` (centres unmarked) [FRS-12] belongs 100 to 1000 nM. To `C1=Cc2ccccc2C2(CN=C(c3ccccc3)O2)c2ccccc21` [OXS-2] belongs 100 to 1000 nM; to `COc1ccc(C2=NCC3(O2)c2ccccc2C=Cc2ccccc23)cc1` [OXS-3], 100 to 1000 nM.

As to `CC1(C)OC2(CN1C(=O)c1ccccc1)c1ccccc1C=Cc1ccccc12` [SOXS-5], the IC50 was 100 to 1000 nM.
